{"source": "patent US20220273643A1", "about": "“METHOD OF TREATING KRAS-ASSOCIATED CANCERS” (THE REGENTS OF THE UNIVERSITY OF MICHIGAN, priority 2019, published 2022)", "key": {"[1]": {"test_system": "immortalized cells of non-cancer origin", "experiment": "IC50 in immortalized cells of non-cancer origin", "assay_type": "cell-based"}, "[2]": {"biological_target": "purified EGFR (Homo sapiens, UniProt P00533)", "sequence (P00533 25-1210)": "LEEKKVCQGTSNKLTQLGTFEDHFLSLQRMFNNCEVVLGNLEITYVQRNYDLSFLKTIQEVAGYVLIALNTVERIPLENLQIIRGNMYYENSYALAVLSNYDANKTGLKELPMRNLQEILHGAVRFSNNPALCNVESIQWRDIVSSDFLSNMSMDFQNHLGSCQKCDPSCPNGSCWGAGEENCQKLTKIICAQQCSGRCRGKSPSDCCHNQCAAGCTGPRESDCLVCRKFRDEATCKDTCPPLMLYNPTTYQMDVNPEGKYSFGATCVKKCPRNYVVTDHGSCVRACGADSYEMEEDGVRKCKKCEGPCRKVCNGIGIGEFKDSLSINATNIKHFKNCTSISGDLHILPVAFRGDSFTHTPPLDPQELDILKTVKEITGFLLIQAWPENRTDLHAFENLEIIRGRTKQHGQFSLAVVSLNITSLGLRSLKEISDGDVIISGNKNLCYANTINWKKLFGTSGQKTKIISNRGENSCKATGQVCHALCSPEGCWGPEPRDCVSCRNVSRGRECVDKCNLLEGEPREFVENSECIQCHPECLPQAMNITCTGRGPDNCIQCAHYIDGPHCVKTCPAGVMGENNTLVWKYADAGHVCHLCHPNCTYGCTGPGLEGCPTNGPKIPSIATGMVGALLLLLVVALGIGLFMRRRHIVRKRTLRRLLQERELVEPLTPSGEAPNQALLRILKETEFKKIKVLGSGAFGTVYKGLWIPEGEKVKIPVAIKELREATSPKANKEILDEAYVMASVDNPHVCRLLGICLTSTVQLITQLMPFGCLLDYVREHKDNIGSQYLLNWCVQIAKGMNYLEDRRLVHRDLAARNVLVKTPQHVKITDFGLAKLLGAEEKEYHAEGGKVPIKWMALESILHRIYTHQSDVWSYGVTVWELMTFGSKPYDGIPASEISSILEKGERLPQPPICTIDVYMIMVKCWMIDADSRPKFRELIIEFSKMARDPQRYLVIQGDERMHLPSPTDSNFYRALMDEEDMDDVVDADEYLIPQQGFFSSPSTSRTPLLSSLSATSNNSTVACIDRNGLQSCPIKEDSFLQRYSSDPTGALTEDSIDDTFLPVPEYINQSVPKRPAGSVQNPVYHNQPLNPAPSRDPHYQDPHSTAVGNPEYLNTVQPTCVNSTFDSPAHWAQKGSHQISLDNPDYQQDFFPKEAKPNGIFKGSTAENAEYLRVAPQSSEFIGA", "experiment": "direct binding to purified EGFR"}, "[3]": {"biological_target": "T1, EGFR (Homo sapiens, UniProt P00533)", "T1 construct": "endogenous in cells; host or cells: HCT-116, Panc1 (inferred; the sentence holding the result names no cells)", "T1 sequence (P00533 25-1210)": "as above", "experiment": "EGF-induced EGFR dimerization", "assay_type": "cell-based"}, "[4]": {"test_system": "cetuximab-resistant cell-lines", "experiment": "IC50 against cetuximab-resistant cell-lines", "assay_type": "cell-based", "details": "cetuximab-resistant cell-lines expressing mutant KRAS"}, "[5]": {"experiment": "solubility in water", "assay_type": "physicochemical", "details": "pH 3.5"}, "[6]": {"test_system": "HCT-116", "experiment": "clonogenic survival assay HCT-116", "assay_type": "cell-based", "details": "KRAS G13D driven cetuximab-resistant colorectal cell-line; FIG. 2", "experimental": "A study was conducted to evaluate the activity of DGD1202 in a KRAS G13D driven cetuximab-resistant colorectal cell-line (HCT-116) using clonogenic survival assays (FIG. 2) and in a pancreatic cancer cell line (Panc1) that contains KRAS G12D mutation (FIG. 3B).\nMore specifically, cells were plated at clonal density in 60 or 100 mm culture dishes in triplicate one day before treatment with a range of concentrations (e.g., 0-10 micro M). Eight to twelve days later, cells were fixed with acetic acid/methanol (1:7, v/v), stained with crystal violet (0.5%, w/v), and counted using a stereomicroscope. Drug cytotoxicity (surviving drug-treated cells) was measured and normalized to the survival of the untreated control cells."}, "[7]": {"test_system": "PanIn (pancreatic intraepithelial neoplasia)", "experiment": "KRAS G12D driven pancreatic tumor model (KC mice)", "assay_type": "in vivo", "details": "30 mg/kg oral gavage daily for 5 weeks, scored at week 11", "experimental": "A study was conducted to evaluate the efficacy of DGD1202 in KRAS G12D driven pancreatic tumor model.\nMore specifically, 6-week old KC mice were treated with DGD1202 via oral gavage (30 mg/kg body weight, daily) for 5 weeks."}, "[8]": {"test_system": "EGFR-driven osimertinib resistant cell lines", "experiment": "activity in osimertinib resistant cell lines", "assay_type": "cell-based"}, "[9]": {"test_system": "NCI-H1975-AZR", "experiment": "NCI-H1975-AZR (osimertinib resistant) xenograft", "assay_type": "in vivo", "details": "SCID mice, 75 mg/kg oral gavage daily for two weeks", "experimental": "FIG. 5 depicts the effect of DGD1202 on osimertinib resistant, NCI-H1975 lung cancer xenografts. (A). SCID mice bearing NCI-H1975 osimertinib resistant xenografts were treated with DGD1202 (75 mg/kg, daily, PO). The arrow marks the initiation of treatment with DGD1202. Change in tumor volume is plotted. (B). The effect of DGD1202 treatment on EGFR was assessed in tumors harvested 3 days post DGD1202 treatment.\nA study was conducted to evaluate the efficacy of DGD1202 in mutant EGFR driven lung cancer model (FIG. 5).\nBriefly, SCID mice bearing locally advanced NCI-H1975-AZR (osimertinib resistant) xenograft were treated daily with oral gavage of DGD1202 (75 mg/kg) for two weeks. Tumor volumes were measured using calipers at least three times a week. The effect of DGD1202 treatment on EGFR expression was determined by IHC staining 3-days after initiation of treatment."}, "[10]": {"biological_target": "T1, EGFR", "experiment": "EGFR degradation", "assay_type": "cell-based", "details": "instead of inhibiting the activity"}, "[11]": {"test_system": "HCT-116", "experiment": "immunoblotting HCT-116", "assay_type": "cell-based", "details": "preliminary data", "experimental": "(§1) FIG. 3 depicts the effect of DGD1202 on EGFR, KRAS and downstream signaling. (A). HCT-116 (colorectal cancer) cells were treated with DGD1202 for 5 h or 15 h, and whole cell lysates were probed with listed antibodies. (B). Evaluation of DGD1202 effects against the KRAS G12D driven pancreatic cell line (Panc1) tumor model; effect of treatment on the steady-state level of EGFR and mtKRAS was determined by immunoblotting; and GAPDH expression was assessed as a loading control.\n(§2) The effect of DGD1202 on EGFR, ERK and AKT was also evaluated by immunoblotting. The preliminary data for DGD1202 in mutant KRAS driven HCT-116 (CRC) and Panc1 (Pancreas) cell lines are shown in FIG. 3A and FIG. 3B, respectively.\n(§3) Cells were plated in 60-mm dishes at a density of 3×10^5 cells per dishes and incubated overnight or to 70% confluence. The cells were treated with the vehicle (DMSO) or DGD1202 and then were harvested at various time points. The pellets were washed twice with ice-cold PBS and re-suspended in lysis buffer for 30 min. After sonication, particulate material was removed by centrifugation at 13,000 rpm for 10 min at 4° C. […] After three additional washes in Tris-buffered saline, bound antibody was detected by enhanced chemiluminescence plus reagent. For quantification of relative protein levels, immunoblot films were scanned and analyzed using Image J 1.32j software. […]"}, "[12]": {"test_system": "lung lesion", "experiment": "genetically engineered KRAS-LSL-G12D mouse model of lung cancer", "assay_type": "in vivo, mice", "details": "30 mg/kg oral gavage Monday-Friday for 4 weeks; paired t-test p=0.0577", "experimental": "The efficacy of DGD1202 treatment was assessed for KRAS-mutant lung tumor initiation and progression. A genetically engineered KRAS-LSL-G12D mouse model of lung cancer was used. This mouse carries a Lox-Stop-Lox (LSL) sequence followed by the KRAS G12D point mutation allele. Tumorigenesis was initiated by intra-nasal delivery of Adenovirus-Cre particles (1.5×10e^7 pfu) that transduced lung epithelial cells to express Cre recombinase that deletes the LSL cassette and allows the expression of the mutant KRAS oncogenic protein.\nEight weeks after viral delivery, the mice were treated either with vehicle or with DGD1202 on a Monday-Friday schedule for 4 weeks at a dose of 30 mg/kg oral gavage. When mice were 20-week old, the lungs were harvested and the H&E sections underwent morphological assessment. The histopathological spectrum of the lung lesions was noted and recorded in a double-blinded fashion for hyperplasia—alveolar or bronchial, the pattern of hyperplasia, adenoma, hyperplasia with focal atypia, bronchial dysplasia, adenomas, and atypical adenomatous hyperplasia. The percentage of lung lesion and total area of lung lesion from each lobe in every sample from both treatment group were scored and are shown in FIG. 6."}, "[13]": {"test_system": "UMSCC74B", "assay_type": "in vivo", "experimental": "FIG. 1 depicts the effect of DGD1202 in mutant KRAS (and EGFR co-driven) head and neck (UMSCC74B) tumor model.\nTumor-bearing mice were treated with DGD1202 via oral gavage in 30 mg/kg dose biweekly for one week. This dose was selected based on its single-dose PK profile."}, "[14]": {"experiment": "bioavailability", "assay_type": "in vivo", "details": "systemic injection and oral administration"}, "[15]": {"test_system": "Panc1", "experiment": "immunoblotting Panc1", "assay_type": "cell-based", "details": "Panc1, KRAS G12D specific antibody; preliminary data", "experimental": "as §1, §2, §3"}, "[16]": {"experiment": "liver microsomal stability", "assay_type": "in vitro ADME", "details": "compared to two other structurally close compounds"}}}
{"smiles": "CN1CCC2(CC1)N=C(SCC(=O)Nc1cnc3ccccc3c1)C(c1ccc(Br)cc1)=N2", "note": "[DGD1202, 2-((3-(4-bromophenyl)-8-methyl-1,4,8-triazaspiro[4.5]deca-1,3-dien-2-yl)thio)-N-(quinolin-3-yl)acetamide]", "values": [{"measurement": "IC50", "setting": "[1]", "value": "> 20000", "unit": "nM"}, {"measurement": "binding to purified EGFR", "setting": "[2]", "value": "directly binds to purified EGFR"}, {"measurement": "EGF-induced EGFR dimerization", "setting": "[3]", "value": "blocks EGF-induced EGFR dimerization"}, {"measurement": "IC50", "setting": "[4]", "value": "500 to 2200", "unit": "nM"}, {"measurement": "solubility in water", "setting": "[5]", "value": "soluble in water at pH 3.5"}, {"measurement": "clonogenic survival", "setting": "[6]", "value": "effective"}, {"measurement": "effect on PanIn (pancreatic intraepithelial neoplasia)", "setting": "[7]", "value": "significantly reduced propensity for developing PanIn"}, {"measurement": "activity in EGFR-driven osimertinib resistant cell lines", "setting": "[8]", "value": "selectively active"}, {"measurement": "efficacy on tumor volume", "setting": "[9]", "value": "exhibited efficacy"}, {"measurement": "EGFR degradation", "setting": "[10]", "value": "degrades EGFR"}, {"measurement": "EGFR and KRAS levels by immunoblotting", "setting": "[11]; HCT116, PAN-RAS antibody, 5 h or 15 h", "value": "affected both EGFR and mtKRAS"}, {"measurement": "downstream signaling pAKT and pERK by immunoblotting", "setting": "[11]; HCT-116", "value": "affected downstream signaling in pAKT and pERK"}, {"measurement": "percentage of lung lesion and total area of lung lesion vs vehicle", "setting": "[12]", "value": "tend towards significance"}, {"measurement": "safety of dose and regimen", "setting": "[13]; 30 mg/kg oral gavage, tumor-bearing mice", "value": "safe"}, {"measurement": "tumor growth", "setting": "[13]; UMSCC74B tumor-bearing mice, DGD1202 30 mg/kg oral gavage, cetuximab 100 mg/kg (FIG. 1), P<0.001 for DGD1202", "value": "significant tumor growth suppression"}, {"measurement": "bioavailability", "setting": "[14]", "value": "bioavailable"}, {"measurement": "EGFR and mtKRAS levels by immunoblotting", "setting": "[15]", "value": "affected both EGFR and mtKRAS (Panc1) levels"}, {"measurement": "liver microsomal stability", "setting": "[16]", "value": "much better liver microsomal stability"}]}
